Reference: ChEMBL document CHEMBL1201862, “PubChem BioAssay data set” (2004)
The source made the active and inactive calls.

Assays:
[1] = target: Large T antigen (Simian virus 40, UniProt P03070); format: functional, Betapolyomavirus macacae;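 also: Confirmatory-stage PubChem screen for compounds that inhibit SV40 T antigen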
[2] = target: T1, RNA-binding protein pos-1 (Caenorhabditis elegans, UniProt G5EF15); assay: disruptors of C. elegans POS-1 RNA interaction – biochemical, fluorescence polarization, dose response (AID 1964);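 also: purified POS-1 fused to maltose binding protein made in E. coli; potency of compounds blocking POS-1 binding to fluorescent RNA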
T1 sequence (G5EF15 whole entry): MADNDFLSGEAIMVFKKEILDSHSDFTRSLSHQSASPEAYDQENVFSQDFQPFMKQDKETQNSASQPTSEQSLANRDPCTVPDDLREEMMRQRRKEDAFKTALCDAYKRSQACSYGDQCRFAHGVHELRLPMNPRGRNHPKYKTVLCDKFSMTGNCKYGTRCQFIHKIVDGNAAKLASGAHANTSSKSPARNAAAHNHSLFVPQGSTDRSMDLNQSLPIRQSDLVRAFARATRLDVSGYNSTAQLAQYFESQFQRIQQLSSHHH

[3] = target: T2, Zinc finger protein mex-5 (Caenorhabditis elegans, UniProt Q9XUB2); assay: potency of MEX-5 RNA-binding blockers – biochemical, C. elegans, fluorescence polarization, dose response (AID 1960)
T2 sequence (Q9XUB2 whole entry): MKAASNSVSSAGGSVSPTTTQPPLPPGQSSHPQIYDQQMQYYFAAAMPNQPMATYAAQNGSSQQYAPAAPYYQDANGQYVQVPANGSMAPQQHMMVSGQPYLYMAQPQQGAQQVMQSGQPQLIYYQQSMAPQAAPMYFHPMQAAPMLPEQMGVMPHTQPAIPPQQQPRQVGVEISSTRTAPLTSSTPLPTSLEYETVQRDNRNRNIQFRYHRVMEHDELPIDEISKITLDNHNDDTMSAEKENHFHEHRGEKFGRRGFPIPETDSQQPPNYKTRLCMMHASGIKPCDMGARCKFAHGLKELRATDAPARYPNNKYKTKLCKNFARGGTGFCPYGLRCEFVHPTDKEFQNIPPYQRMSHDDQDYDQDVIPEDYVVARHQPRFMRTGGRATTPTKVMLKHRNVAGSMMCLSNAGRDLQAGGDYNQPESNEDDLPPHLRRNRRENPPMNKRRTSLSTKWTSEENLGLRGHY

[4] = target: T3, Corticotropin-releasing factor receptor 2/Corticotropin-releasing factor-binding protein (Homo sapiens, UniProt P24387+Q13324); assay: activators of CRF receptor 2 with binding protein – uHTS hits, confirmation (AID 602473); format: functional; conditions: read-out: EC50_Mean
T3 sequence (Q13324 whole entry): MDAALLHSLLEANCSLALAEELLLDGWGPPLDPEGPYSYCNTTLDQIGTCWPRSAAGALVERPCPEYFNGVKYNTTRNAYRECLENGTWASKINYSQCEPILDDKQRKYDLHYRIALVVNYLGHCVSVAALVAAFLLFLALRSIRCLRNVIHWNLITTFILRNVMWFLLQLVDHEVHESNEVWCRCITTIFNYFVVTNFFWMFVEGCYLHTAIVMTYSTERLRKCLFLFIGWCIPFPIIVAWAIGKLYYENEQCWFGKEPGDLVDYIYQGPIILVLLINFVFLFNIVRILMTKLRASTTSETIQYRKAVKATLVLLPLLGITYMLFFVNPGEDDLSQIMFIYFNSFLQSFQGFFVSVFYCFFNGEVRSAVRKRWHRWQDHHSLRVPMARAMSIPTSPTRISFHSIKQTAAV
T3 sequence (P24387 whole entry): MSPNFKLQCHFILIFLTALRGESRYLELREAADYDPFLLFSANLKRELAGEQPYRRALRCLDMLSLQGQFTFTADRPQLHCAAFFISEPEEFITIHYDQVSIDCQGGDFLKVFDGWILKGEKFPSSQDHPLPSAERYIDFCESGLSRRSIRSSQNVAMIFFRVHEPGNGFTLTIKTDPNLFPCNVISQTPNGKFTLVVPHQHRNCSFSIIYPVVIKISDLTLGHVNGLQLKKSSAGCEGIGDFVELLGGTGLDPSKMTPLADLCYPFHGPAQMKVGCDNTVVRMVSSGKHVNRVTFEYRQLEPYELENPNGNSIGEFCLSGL

[5] = target: Cytochrome P450 3A4 (Homo sapiens, UniProt P08684);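 also: CYP3A4 tested as one member of a cytochrome P450 panel screen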
[6] = NIH-3T3 fibroblast cytotoxicity, dose response, cytotoxicity control, cell-based, fluorescence, Alamar Blue, secondary assay (AID 2327); format: functional;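 also: NIH-3T3 mouse fibroblasts cultured with fluconazole at 8 µg/mL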
[7] = cells; format: functional, cell-based
[8] = fluconazole-exposed Candida albicans growth modulators – fluorescence, retest, confirmation (AID 2467); format: functional, cell-based
[9] = cells; format: functional, cell-based; remark: listed apart in the source
[10] = target: Nonstructural protein 1 (Influenza A virus, UniProt Q194T2); format: functional, Influenza A virus (A/California/07/2009(H1N1))
[11] = cells; format: functional
[12] = target: Genome polyprotein (dengue virus type 2, UniProt P29990); assay: flavivirus cap methylation enzyme inhibition – biochemical, confirmation dose response, primary screen (AID 588689); format: functional
[13] = target: T4, Rac GTPase-activating protein 1 (Homo sapiens, UniProt Q9H0H5); assay: blockers of MgcRacGAP-driven Rac1 GTP hydrolysis – biochemical, ADP Hunter fluorescence, primary and confirmatory, confirmation (AID 624330); format: functional
T4 sequence (Q9H0H5 whole entry): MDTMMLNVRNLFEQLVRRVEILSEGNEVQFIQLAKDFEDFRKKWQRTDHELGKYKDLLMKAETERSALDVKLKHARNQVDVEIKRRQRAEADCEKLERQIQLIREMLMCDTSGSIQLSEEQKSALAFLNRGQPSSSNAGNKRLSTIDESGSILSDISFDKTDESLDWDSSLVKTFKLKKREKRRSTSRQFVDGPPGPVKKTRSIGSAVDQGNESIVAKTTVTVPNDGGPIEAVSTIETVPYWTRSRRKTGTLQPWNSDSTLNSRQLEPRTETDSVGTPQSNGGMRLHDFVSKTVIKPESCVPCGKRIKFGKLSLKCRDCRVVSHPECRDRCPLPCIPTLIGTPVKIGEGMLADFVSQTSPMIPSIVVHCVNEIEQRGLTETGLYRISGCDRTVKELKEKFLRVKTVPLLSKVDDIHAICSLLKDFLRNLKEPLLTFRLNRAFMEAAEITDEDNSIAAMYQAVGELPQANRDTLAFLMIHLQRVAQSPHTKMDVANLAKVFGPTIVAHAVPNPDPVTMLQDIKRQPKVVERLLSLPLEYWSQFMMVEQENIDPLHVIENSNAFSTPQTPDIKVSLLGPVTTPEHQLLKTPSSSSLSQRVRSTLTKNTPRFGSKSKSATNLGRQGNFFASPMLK

[14] = target: Cytochrome P450 2C9 (Homo sapiens, UniProt P11712)
[15] = target: FAD-linked sulfhydryl oxidase ALR (Homo sapiens, UniProt P55789); assay: ALR-catalysed DTT oxidation blockers – biochemical, H2O2 detection, luminescence, cherry-pick, dose response (AID 493248)
[16] = reduction of Shn3 3'UTR-driven luciferase in osteoblasts – cell-based, Clone20 osteoblasts, firefly luciferase, cherry-picked, dose response (AID 624132); format: functional;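 also: firefly luciferase luminescence from reporter carrying the Shn3 3'UTR in osteoblasts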
[17] = test system: BJ; assay: BJ-TERT fibroblast viability loss – cell-based, RAS-independent, luminescence, dose response (AID 1933); format: functional; conditions: Homo sapiens
[18] = test system: BJ; assay: cells; format: functional, cell-based; conditions: Homo sapiens
[19] = target: Luciferin 4-monooxygenase (Photinus pyralis, UniProt P08659); assay: inhibition of purified Photinus pyralis luciferase – biochemical, luminescence, dose response (AID 1891)
[20] = Luminescence Cell-Based Dose Confirmation HTS to Identify Inhibitors of Platelet Dense Granule Release. [Related pubchem assays: 1663 (Primary HTS), 1678 (Summary of Project)]; format: functional
[21] = test system: BJ; assay: BJ-TERT-LT-ST fibroblast viability loss – cell-based, RAS-independent, luminescence, dose response (AID 1935); format: functional; conditions: Homo sapiens;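 also: BJ fibroblasts immortalized with TERT plus LT and ST oncogenes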
[22] = DRD fibroblast viability loss – cell-based, non-viral oncogenic, luminescence, dose response (AID 1934); format: functional; conditions: Homo sapiens
[23] = target: T5, Heat shock factor protein 1 (Mus musculus, UniProt P38532); assay: enhancement of HSF1-driven luciferase signal – cell-based, NIH3T3, luminescence, dose retest, confirmation (AID 435004); format: functional;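 also: stress induced by proteasome inhibitor MG132 added 30 min after compound; luciferase reporter driven by HSF1 response element in NIH3T3 cells; actives raise luminescence as potentiators of the MG132 stress response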
T5 sequence (P38532 whole entry): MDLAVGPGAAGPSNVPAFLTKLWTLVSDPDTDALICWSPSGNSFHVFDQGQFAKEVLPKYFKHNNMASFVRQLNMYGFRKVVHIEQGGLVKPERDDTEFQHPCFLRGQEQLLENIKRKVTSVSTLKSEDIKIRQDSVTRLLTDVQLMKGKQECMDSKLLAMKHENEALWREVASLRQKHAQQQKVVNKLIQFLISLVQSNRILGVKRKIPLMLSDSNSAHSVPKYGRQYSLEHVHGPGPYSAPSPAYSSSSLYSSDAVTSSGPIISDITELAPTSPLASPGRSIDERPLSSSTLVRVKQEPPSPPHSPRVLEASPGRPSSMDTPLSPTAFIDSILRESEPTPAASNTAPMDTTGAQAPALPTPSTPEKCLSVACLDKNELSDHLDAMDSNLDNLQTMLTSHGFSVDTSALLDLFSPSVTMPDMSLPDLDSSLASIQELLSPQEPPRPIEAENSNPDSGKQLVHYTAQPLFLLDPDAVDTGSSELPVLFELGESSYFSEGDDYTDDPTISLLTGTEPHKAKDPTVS

[24] = target: Cytochrome P450 2C19 (Homo sapiens, UniProt P33261); assay: Cytochrome panel assay with activity outcomes. Panel member name: p450-cyp2c19 Compounds with AC50 equal or less than 10 uM are considered active; format: functional
Chain of Cytochrome P450 2C19 (P33261 whole entry): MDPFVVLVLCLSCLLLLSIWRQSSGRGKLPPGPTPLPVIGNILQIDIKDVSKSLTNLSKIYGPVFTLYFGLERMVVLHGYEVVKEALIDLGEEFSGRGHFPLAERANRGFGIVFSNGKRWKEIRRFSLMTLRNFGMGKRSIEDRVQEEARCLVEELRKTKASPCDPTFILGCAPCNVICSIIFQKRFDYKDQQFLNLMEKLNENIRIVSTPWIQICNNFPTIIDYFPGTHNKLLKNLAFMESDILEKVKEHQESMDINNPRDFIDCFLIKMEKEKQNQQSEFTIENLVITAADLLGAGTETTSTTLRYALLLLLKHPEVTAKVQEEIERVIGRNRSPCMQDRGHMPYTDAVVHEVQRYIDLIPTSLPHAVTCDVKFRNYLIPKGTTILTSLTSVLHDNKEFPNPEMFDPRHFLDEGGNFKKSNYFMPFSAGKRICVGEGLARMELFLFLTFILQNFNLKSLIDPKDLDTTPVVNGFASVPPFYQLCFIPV

Chain of Large T antigen (P03070 whole entry, the tested form may be a part): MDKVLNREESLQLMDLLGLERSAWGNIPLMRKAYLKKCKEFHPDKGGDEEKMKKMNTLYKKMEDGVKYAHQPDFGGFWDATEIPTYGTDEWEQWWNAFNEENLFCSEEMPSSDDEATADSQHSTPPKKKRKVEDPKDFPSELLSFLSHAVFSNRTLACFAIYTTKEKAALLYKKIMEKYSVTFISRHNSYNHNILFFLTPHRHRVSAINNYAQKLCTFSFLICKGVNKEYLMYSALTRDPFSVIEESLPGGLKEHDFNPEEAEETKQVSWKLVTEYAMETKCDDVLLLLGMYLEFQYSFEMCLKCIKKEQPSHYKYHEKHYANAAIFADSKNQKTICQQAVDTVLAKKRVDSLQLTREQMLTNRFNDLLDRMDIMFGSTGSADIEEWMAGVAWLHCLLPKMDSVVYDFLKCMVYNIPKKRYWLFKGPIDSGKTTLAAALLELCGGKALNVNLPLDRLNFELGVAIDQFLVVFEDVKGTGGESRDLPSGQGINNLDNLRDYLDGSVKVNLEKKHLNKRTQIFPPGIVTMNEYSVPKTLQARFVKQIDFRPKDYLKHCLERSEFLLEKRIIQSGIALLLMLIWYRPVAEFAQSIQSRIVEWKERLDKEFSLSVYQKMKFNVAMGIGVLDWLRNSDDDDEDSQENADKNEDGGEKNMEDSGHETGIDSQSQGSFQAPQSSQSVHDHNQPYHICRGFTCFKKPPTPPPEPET
Chain of Genome polyprotein (P29990 2492-3391 limits assumed): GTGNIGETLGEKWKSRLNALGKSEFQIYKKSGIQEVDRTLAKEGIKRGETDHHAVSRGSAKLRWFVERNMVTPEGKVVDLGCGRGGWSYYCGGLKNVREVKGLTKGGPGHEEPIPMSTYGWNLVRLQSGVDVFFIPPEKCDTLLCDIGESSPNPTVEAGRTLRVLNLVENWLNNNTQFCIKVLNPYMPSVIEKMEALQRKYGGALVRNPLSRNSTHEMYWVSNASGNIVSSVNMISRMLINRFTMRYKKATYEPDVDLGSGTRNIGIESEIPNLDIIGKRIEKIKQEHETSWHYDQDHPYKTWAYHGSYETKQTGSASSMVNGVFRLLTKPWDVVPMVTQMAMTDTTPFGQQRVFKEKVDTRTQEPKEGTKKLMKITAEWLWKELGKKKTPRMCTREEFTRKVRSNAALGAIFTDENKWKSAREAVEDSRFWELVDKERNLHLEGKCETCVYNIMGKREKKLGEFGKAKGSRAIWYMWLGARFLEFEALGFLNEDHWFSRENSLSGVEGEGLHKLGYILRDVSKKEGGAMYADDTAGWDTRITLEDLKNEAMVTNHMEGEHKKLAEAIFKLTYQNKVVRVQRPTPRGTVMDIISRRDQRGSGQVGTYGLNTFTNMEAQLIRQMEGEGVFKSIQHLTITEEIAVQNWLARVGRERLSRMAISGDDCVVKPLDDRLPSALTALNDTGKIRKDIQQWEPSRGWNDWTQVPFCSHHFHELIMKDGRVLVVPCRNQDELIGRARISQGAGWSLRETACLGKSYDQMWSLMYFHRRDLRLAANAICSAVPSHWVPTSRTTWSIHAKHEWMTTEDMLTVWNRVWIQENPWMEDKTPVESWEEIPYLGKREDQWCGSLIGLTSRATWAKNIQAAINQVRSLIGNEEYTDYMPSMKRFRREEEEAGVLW
Chain of Cytochrome P450 2C9 (P11712 whole entry): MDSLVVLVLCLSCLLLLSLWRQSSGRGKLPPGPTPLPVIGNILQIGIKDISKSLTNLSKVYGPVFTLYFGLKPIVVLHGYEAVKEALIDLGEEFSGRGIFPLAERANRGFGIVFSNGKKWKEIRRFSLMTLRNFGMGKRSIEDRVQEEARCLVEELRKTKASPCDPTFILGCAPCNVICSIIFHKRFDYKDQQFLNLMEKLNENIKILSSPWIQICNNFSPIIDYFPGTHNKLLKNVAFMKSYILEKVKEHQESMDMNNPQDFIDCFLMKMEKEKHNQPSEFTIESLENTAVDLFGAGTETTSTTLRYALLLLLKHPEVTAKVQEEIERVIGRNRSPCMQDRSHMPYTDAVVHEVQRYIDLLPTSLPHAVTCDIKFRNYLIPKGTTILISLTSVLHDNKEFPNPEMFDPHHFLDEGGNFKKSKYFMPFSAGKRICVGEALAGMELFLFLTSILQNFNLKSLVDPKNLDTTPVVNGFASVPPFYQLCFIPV
Chain of Nonstructural protein 1 (Q194T2 whole entry): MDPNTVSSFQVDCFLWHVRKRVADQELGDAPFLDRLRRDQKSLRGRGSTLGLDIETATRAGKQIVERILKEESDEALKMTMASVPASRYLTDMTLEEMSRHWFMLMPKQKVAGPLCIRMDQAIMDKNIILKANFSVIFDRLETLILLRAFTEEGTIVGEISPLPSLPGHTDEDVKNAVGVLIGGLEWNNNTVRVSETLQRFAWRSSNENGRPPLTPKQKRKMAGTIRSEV
Chain of Cytochrome P450 3A4 (P08684 whole entry): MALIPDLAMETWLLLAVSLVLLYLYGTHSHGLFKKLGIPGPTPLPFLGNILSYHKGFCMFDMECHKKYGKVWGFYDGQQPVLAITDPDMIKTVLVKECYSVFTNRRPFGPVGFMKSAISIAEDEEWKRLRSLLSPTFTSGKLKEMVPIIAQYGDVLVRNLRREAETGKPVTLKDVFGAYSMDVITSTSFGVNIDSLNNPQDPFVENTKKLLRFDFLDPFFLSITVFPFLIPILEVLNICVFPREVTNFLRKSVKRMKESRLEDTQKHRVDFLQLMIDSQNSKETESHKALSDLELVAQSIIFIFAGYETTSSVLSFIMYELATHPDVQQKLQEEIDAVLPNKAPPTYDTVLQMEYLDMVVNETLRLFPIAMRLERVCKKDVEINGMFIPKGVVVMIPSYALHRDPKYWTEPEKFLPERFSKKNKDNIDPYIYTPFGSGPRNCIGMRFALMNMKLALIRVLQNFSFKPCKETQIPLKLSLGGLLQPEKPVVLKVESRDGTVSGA
Chain of Luciferin 4-monooxygenase (P08659 whole entry): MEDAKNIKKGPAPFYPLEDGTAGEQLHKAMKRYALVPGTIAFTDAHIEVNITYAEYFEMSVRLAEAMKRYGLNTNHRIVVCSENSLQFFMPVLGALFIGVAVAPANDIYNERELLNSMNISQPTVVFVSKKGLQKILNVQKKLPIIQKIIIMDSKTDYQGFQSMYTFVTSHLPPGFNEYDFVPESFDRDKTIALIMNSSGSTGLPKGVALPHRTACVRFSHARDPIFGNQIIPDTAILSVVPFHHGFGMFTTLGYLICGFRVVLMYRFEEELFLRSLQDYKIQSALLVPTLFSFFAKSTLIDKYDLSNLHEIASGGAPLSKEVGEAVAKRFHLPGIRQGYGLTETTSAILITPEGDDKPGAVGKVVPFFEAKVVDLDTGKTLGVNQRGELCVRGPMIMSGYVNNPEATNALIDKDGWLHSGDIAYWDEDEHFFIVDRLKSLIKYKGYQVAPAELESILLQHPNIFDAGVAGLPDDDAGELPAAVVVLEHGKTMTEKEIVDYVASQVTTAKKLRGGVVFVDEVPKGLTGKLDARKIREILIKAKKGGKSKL
Chain of FAD-linked sulfhydryl oxidase ALR (P55789 whole entry): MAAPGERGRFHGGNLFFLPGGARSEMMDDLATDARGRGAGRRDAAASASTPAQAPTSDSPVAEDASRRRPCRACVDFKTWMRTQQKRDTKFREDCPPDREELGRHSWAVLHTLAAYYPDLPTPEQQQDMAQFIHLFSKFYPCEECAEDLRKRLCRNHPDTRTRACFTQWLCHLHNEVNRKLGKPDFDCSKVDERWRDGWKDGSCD

With `N=C1/C(=C\c2ccc(O)cc2)C(=O)N=C2SC(CC(=O)N3CCCCC3)=NN12` the IC50 [1] was 14.2 µM (active).

For `CCOc1ccc(-c2nn(-c3ccccc3)cc2/C=C2\SC(=S)N(C3CCS(=O)(=O)C3)C2=O)cc1` (stereo not given), the EC50 [2] was > 300 µM (not active), the EC50 [3] was > 300 µM (not active) and the EC50 [4] was 13.1 µM (active).

With `CSc1nncc(/C(C)=N\Nc2ccccc2)n1` the EC50 [2] was 41.3 µM (active), the EC50 [3] was > 300 µM (not active) and the AC50 [5] was 2.51 µM (inconclusive).

With `Cc1ccnc(NC(c2cccnc2)c2ccc3cccnc3c2O)c1` (stereo not given) the EC50 [6] was 46.7 µM (active), the EC50 [7] was 200 µM (active) and the EC50 [8] was > 38 µM (not active). The EC50 [9] was > 350 µM (not active) and the IC50 [10] was 8.52 µM (active).

For `CCn1nc(C)c(/C=C2\CCCC3=C2OC(N)=C(C#N)C3c2c(C)nn(CC)c2C)c1C` (stereo not given), the EC50 [2] was 36 µM (active) and the EC50 [3] was 51.8 µM (active).

For `COc1ccc(C2(O)CCN(CCCCOc3ccccc3)CC2)cc1`, the IC50 [11] was 32.8 µM (active).

In the case of `Cc1c(C)n(Cc2ccccc2)c2ncnc(NN)c12`, the IC50 [1] is reported as > 100 µM (active).

In the case of `Cc1cc(/C=C(\C#N)C(=O)Nc2ccccc2)c(C)n1-c1ccc(C(=O)O)cc1`, the EC50 [2] is reported as > 300 µM (not active) and the EC50 [3] is reported as > 300 µM (not active).

In the case of `CCOc1ccc(C(c2c(O)n(C)c(SC)nc2=O)c2c(O)n(C)c(SC)nc2=O)cc1`, the IC50 [12] is reported as 43 µM (active).

In the case of `Cc1ccccc1NC(=O)/C(C#N)=C/c1ccc(-c2ccc(Cl)c(C(=O)O)c2)o1`, the EC50 [2] is reported as > 300 µM (not active) and the EC50 [3] is reported as > 300 µM (not active).

With `CN=C(S)Nc1ccc(Nc2ccccc2)cc1` the IC50 [1] was 12.3 µM (active) and the IC50 [13] was 64.6 µM (active).

For `Cc1[nH]n(-c2ccccc2)c(=O)c1N=Nc1ccccc1C(=O)O`, the IC50 [12] was 58 µM (active).

In the case of `COc1cc(C2C(C#N)=C(N)OC3=C2C(=O)CCC3)cc(OC)c1OC(=O)N1CCOCC1` (stereo not given), the EC50 [2] is reported as > 300 µM (not active), the EC50 [3] is reported as > 300 µM (not active) and the AC50 [5] is reported as 25.1 µM (inconclusive). The AC50 [14] was 22.4 µM (inconclusive).

With `CCOC(=O)c1cc(-c2ccc(N)cc2)sc1N` the IC50 [1] was 9.87 µM (active).

With `COc1cc(/C=N\NC(=O)CC(=O)NCCc2ccccc2)ccc1O` the IC50 [1] was 7.57 µM (active), the AC50 [15] was 1.7 µM (active) and the IC50 [13] was 27.4 µM (active).

In the case of `COC(=O)[C@@]12CCCN1[C@H](c1ccc(-c3ccc(OC)cc3)cc1)[C@@H]1C(=O)N(C)C(=O)[C@@H]12`, the AC50 [16] is reported as 38.9 µM (active).

For `CCc1ccc(NC(=O)N(CCN2CCOCC2)Cc2ccc3c(c2)CCCN3CC)cc1`, the IC50 [10] was 40.6 µM (active).

For `CCn1c(-c2ccco2)nc2ccccc21`, the IC50 [11] was > 50 µM (active).

With `C/C(=N\NC(=O)c1ccc([N+](=O)[O-])c(C)c1)c1ccccc1Cl` the IC50 [11] was 42.2 µM (active).

In the case of `O=C(COc1ccc(Cl)cc1)Nc1ccc(Cl)cn1`, the IC50 [11] is reported as 30.3 µM (active).

With `Fc1cccc(/C=N/Nc2nccnc2Cl)c1` the EC50 [17] was 11.9 µM (active), the EC50 [7] was > 350 µM (not active) and the EC50 [18] was 11 µM (active). For the same molecule, the EC50 [19] was 3.81 µM (active), the EC50 [20] was 2.26 µM (active) and the EC50 [9] was 7.47 µM (active). For the same molecule, the EC50 [21] was > 75 µM (inconclusive) and the EC50 [22] was 11.3 µM (active).

With `O=C(COC(=O)COc1ccc(Nc2ccccc2)cc1)NCc1ccco1` the IC50 [11] was 4.72 µM (active) and the IC50 [13] was 77.4 µM (active).

With `CCOC(=O)C(C)Oc1cc(Cl)c(C=O)cc1OC` (stereo not given) the EC50 [23] was > 260 µM (inactive) and the IC50 [11] was 24.4 µM (active).

In the case of `O=C(CN1CCCCC1)Nc1nnc(-c2ccc([N+](=O)[O-])cc2)s1`, the IC50 [11] is reported as 29.9 µM (active), the AC50 [24] is reported as “inconclusive” and the AC50 [14] is reported as 17.8 µM (inconclusive).

With `C=CCn1c(=S)[nH]c2nc3c(cc2c1=O)COC(C)(C)C3` the EC50 [2] was > 300 µM (not active) and the EC50 [3] was > 300 µM (not active).

In the case of `CSc1nc(O)c(C(c2ccc(O)cc2)c2c(O)nc(SC)nc2O)c(O)n1`, the IC50 [12] is reported as 46.7 µM (active).
